Holding throughout (assay type): biochemical, mice
Experiment [1] concerns IMM potential. Put plainly: Rhodamine 123 (Rh123) uptake counterscreen.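 Further: isolated mitochondria respiring on glutamate plus malate in sucrose MOPS-Tris buffer at pH 7.4, Rh123 added with the organelles, compounds tested across a twofold dilution series.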
Experimental: Assay buffer: 250 mM sucrose, 10 mM MOPS-Tris, 0.01 mM EGTA-Tris, 1.0 mM phosphoric acid-Tris, pH 7.4 • Solution 1. 5.0 mM glutamate and 2.5 mM malate in Assay Buffer. • Solution 2. 1% DMSO in Solution 1. • Solution 3. 0.8 μM FCCP (the stock 40 μM in DMSO) in Solution 1. • Solution 4. 0.5 mg/mL mitochondria and 0.8 μM Rh123 in Assay Buffer.
Protocol Summary: • 1. Freshly isolate mitochondria, prepare solutions according to the recipes in the Reagent Section. • 2. Dispense 100 μL of Solution 3 to Columns 1-2 and Solution 2 Columns 11-12 (positive and negative controls, respectively) of the 96-well black assay plate (Falcon 353376). • 3. Dispense 200 μL of Solution 1 to Row A Columns 3-10. • 4. Next, dispense 100 μL of Solution 2 to Rows B-H Columns 3-10. • 5. Add 4 μL of 10 mM test compounds in DMSO to Row A Columns 3-10, perform 1:2 serial dilutions Row A to H Columns 3-10. • 6. Finally, dispense 100 μL of Solution 4 in all wells. The reaction starts. • 7. Keep the plate at room temperature for 5 minutes and then read fluorescence (excitation 485 nm, emission 538 nm) on Fluoroskan Ascent FL, Thermo Scientific.
Concentration-Response Counterscreen Assay to Identify Compounds that Prevent Mitochondrial Swelling Via Interference with the IMM Potential (SAR Assay AID No. 743361)
Assay buffer: 250 mM sucrose, 10 mM MOPS-Tris, 0.01 mM EGTA-Tris, 1.0 mM phosphoric acid-Tris, pH 7.4 • Solution 1. 5.0 glutamate and 2.5 mM malate in Assay Buffer. • Solution 2. 1% DMSO in Solution 1. • Solution 3. 0.8 μM FCCP (the stock 40 μM in DMSO) in Solution 1. • Solution 4. 0.5 mg/mL mitochondria and 0.8 μM Rh123 in Assay Buffer.
For experiment [2], the system named is mtPTP. As to the kind of experiment: Calcium retention capacity (CRC) assay on isolated mitochondria. As to conditions: for Calcium Retention Capacity (CRC/CRC0 at 12.5 μM): 12.5 μM compound; for Calcium Retention Capacity (CRC/CRC0) at 1.56 μM: 1.56 μM compound.
Experimental: Assay buffer: 250 mM sucrose, 10 mM MOPS-Tris, 0.01 mM EGTA-Tris, 1.0 mM phosphoric acid-Tris, pH 7.4. • Solution 1. 10 mM glutamate and 5 mM malate in Assay buffer. • Solution 2. 1% DMSO in Solution 2. • Solution 3. 0.5 mg/mL mitochondria and 1.0 μM Calcium Green-5N in Assay Buffer. • Solution 4. 0.25 mM CaCl2).
Protocol Summary: • 1. Freshly isolate mitochondria, prepare solutions according to the recipes in the Reagent Section. • 2. Dispense 100 μL of Solution 2 to Columns 1-2 (negative control) of the 96-well black assay plate (Falcon 353376). • 3. Dispense 200 μL of Solution 1 to Row A Columns 3-12. • 4. Next, dispense 100 μL of Solution 2 to Rows B-H Columns 3-12. • 5. Add 4 μL of 5 mM test compounds in DMSO to Row A Columns 3-12, perform 1:2 serial dilutions Row A to H Columns 3-12. • 6. Finally, dispense 100 μL of Solution 3 in all wells. • 7. Experiment starts. Read Calcium Green-5N fluorescence (excitation 485 nm, emission 538 nm) and perform a train of 4 μL Solution 4 additions with Fluoroskan Ascent FL, Thermo Scientific.
Experiment [3] concerns Mitochondrial Permeability Transition Pore. As to the kind of experiment: Mitochondrial swelling absorbance assay.
Experimental: Mitochondrial Swelling (Hit Validation, Confirmatory Assay, Concentration-Response, AID No. 720722)
Assay buffer: 250 mM sucrose, 10 mM MOPS-Tris, 0.01 mM EGTA-Tris, 1.0 mM phosphoric acid-Tris, pH 7.4 • Solution 1. 5.0 mM glutamate and 2.5 mM malate in Assay buffer. • Solution 2. 80-120 μM CaCl2) depending on mitochondrial activity in Solution 1. Note: Concentration of Ca^2+ in the assay is dependent upon the activity of the isolated mitochondria which is determined via a calcium titration just before each screening batch. A Ca^2+ concentration is used that allows for the arrival at a 2:1 window at the 20 minute time period. • Solution 3. 1% DMSO in Solution 2. • Solution 4. 2.0 mM EGTA-Tris, pH 7.4 in Solution 3. • Solution 5. 0.5 mg/mL mitochondria in Assay Buffer.
Protocol Summary: • 1. Freshly isolate mitochondria, prepare solutions according to the recipes in the reagent section • 2. Dispense 100 μL of Solution 4 to Columns 1-2 and Solution 3 Columns 11-12 (positive and negative controls, respectively) of the 96-well clear assay plate (Falcon 353072) • 3. Dispense 200 μL of Solution 1 to Row A Columns 3-10. • 4. Next, dispense 100 μL of Solution 3 to Rows B-H Columns 3-10. • 5. Add 4 μL of 5 mM test compounds in DMSO to Row A Columns 3-10, perform 1:2 serial dilutions Row A to H Columns 3-10. • 6. Finally, dispense 100 μL of Solution 5 in all wells. The reaction starts. • 7. Keep the plate at room temperature for 20 minutes and then read absorbance at 540 nm on MultiSkan EX, Thermo Scientific.
Concentration-Response Assay to Identify Compounds that Inhibit Mitochondrial Swelling (SAR Assay AID No. 743359)
Assay buffer: 250 mM sucrose, 10 mM MOPS-Tris, 0.01 mM EGTA-Tris, 1.0 mM phosphoric acid, pH 7.4 • Solution 1. 5.0 mM glutamate and 2.5 mM malate in Assay Buffer. • Solution 2. 100-120 μM CaCl2) depending on mitochondrial activity in Solution 1. Note: Concentration of Ca^2+ in the assay is dependent upon the activity of the isolated mitochondria which is determined via a calcium titration just before each screening batch. A Ca^2+ concentration is used that allows for the arrival at a 2:1 window at the 20 minute time period. • Solution 3. 1% DMSO in Solution 2. • Solution 4. 2.0 mM EGTA-Tris, pH 7.4 in Solution 3. • Solution 5. 0.5 mg/mL mitochondria in Assay Buffer.
Protocol Summary: • 1. Freshly isolate mitochondria, prepare solutions according to the recipes in the Reagent Section. • 2. Dispense 100 μL of Solution 4 to Columns 1-2 and Solution 3 Columns 11-12 (positive and negative controls, respectively) of the 96-well clear assay plate (Falcon 353072). • 3. Dispense 200 μL of Solution 1 to Row A Columns 3-10. • 4. Next, dispense 100 μL of Solution 3 to Rows B-H Columns 3-10. • 5. Add 4 μL of 5 mM test compounds in DMSO to Row A Columns 3-10, perform 1:2 serial dilutions Row A to H Columns 3-10. • 6. Finally, dispense 100 μL of Solution 5 in all wells. The reaction starts. • 7. Keep the plate at room temperature for 20 minutes and then read absorbance at 540 nm on MultiSkan EX, Thermo Scientific.
Where [4] appears, read: Table 2, average of >3 experiments ± SEM, read-out: Rh123 Assay EC50.
The mark [5] stands for this setting: Table 2, average of >3 experiments ± SEM.
Setting [6] is: Table 1, read-out: Rh123 uptake (EC50).

SMILES strings stand for the structures. Read-outs that look alike come from different tables or passages of the source. Bounds are passed on as bounds.

On to `CN1CCN(Cc2ccc(NC(=O)c3ccc(Cl)c(OCc4ccccc4)c3)cc2)CC1` [Entry 5], for which the EC50 in experiment [1] (setting [4]) was found to be 49.6 ± 4.3 µM; in experiment [3] (setting [5]), 0.423 ± 0.028 µM. Further, the “Calcium Retention Capacity (CRC/CRC0 at 12.5 μM)” value in experiment [2] (setting [5]) is given as 14.1 ± 1.1.
As for `O=C(Nc1cccc(CN2CCNCC2)c1)c1ccc(Cl)c(OCc2ccccc2)c1` [Entry 6], the EC50 in experiment [1] (setting [4]) came out at 42.6 ± 3.1 µM; in experiment [3] (setting [5]) it was 0.286 ± 0.027 µM. In addition, the “Calcium Retention Capacity (CRC/CRC0 at 12.5 μM)” value in experiment [2] (setting [5]) is given as 16.1 ± 1.5.
As to `O=C(Nc1ccc(CN2CCNCC2)cc1)c1ccc(Cl)c(OCc2ccccc2)c1` [Entry 7], the EC50 in experiment [1] (setting [4]) was determined as 46.4 ± 3.2 µM; in experiment [3] (setting [5]), 0.206 ± 0.021 µM. In addition, the “Calcium Retention Capacity (CRC/CRC0 at 12.5 μM)” value in experiment [2] (setting [5]) is listed as 18.3 ± 1.3.
Regarding `O=C(Nc1ccc(CN2CCCCC2)cc1)c1ccc(Cl)c(OCc2cccc(Cl)c2)c1` [Entry 8], the EC50 came to 23.2 ± 1.3 µM in experiment [1] (setting [4]) and 1.19 ± 0.33 µM in experiment [3] (setting [5]). The “Calcium Retention Capacity (CRC/CRC0 at 12.5 μM)” value in experiment [2] (setting [5]) amounted to 6.50 ± 1.20.
On the same counts, the results for `O=C(Nc1ccc(CN2CCCCC2)cc1)c1ccc(Cl)c(OCc2ccccc2Cl)c1` [Entry 9] are greater than 100 µM, 4 ± 0.66 µM and 2.37 ± 0.41.
For `O=C(Nc1ccc(CN2CCCCC2)cc1)c1ccc(Cl)c(OCc2ccc(Cl)cc2)c1` [Entry 10], the EC50 in experiment [1] (setting [4]) was 24.7 ± 1.5 µM; in experiment [3] (setting [5]), 1.24 ± 0.39 µM. Besides, the “Calcium Retention Capacity (CRC/CRC0 at 12.5 μM)” value in experiment [2] (setting [5]) was 5.91 ± 0.38.
Take `O=C(Nc1ccc(CN2CCCCC2)cc1)c1ccc(Cl)c(OCc2ccccc2F)c1` [Entry 11]: the EC50 is greater than 100 µM in experiment [1] (setting [4]) and 1.39 ± 0.17 µM in experiment [3] (setting [5]). Moreover, the “Calcium Retention Capacity (CRC/CRC0 at 12.5 μM)” value in experiment [2] (setting [5]) was 2.59 ± 0.54.
The matching figures for `O=C(Nc1ccc(CN2CCCCC2)cc1)c1ccc(Cl)c(OCc2ccc(F)cc2)c1` [Entry 12]: 28.6 ± 1.1 µM, 0.49 ± 0.08 µM and 10.1 ± 0.8.
On the same counts, the results for `COc1ccc(/C=C/C(=O)Nc2cccc(Cl)c2)cc1O` [Entry 13] are greater than 100 µM, 0.073 ± 0.007 µM and 7.67 ± 0.35.
As for `COc1ccc(-c2cc(C(=O)Nc3cc(Cl)cc(Cl)c3)no2)cc1O` [drawing 126], the EC50 in experiment [1] (setting [6]) was greater than 100 µM; in experiment [3] (Table 1, average ± SEM), 0.277 ± 0.001 µM. The “Calcium Retention Capacity (CRC/CRC0) at 1.56 μM” value in experiment [2] (Table 1, average ± SEM) is 1.17 ± 0.11 (at 1.56 μM).
With `O=C(Nc1cccc(Cl)c1Cl)c1cc(-c2ccc(F)c(O)c2)on1` [drawing 136], the EC50 in experiment [1] (setting [6]) was greater than 100 µM; in experiment [3] (Table 1, average ± SEM), 0.0554 ± 0.0041 µM. The “Calcium Retention Capacity (CRC/CRC0 at 12.5 μM)” value in experiment [2] (Table 1, average ± SEM) was determined as 9.37 ± 0.65.
Take `O=C(Nc1cc(Cl)cc(Cl)c1)c1cc(-c2ccc(F)c(O)c2)on1` [drawing 140]: the EC50 was greater than 100 µM in experiment [1] (setting [6]) and 0.0756 ± 0.0092 µM in experiment [3] (Table 1, unit inferred, average ± SEM). The “Calcium Retention Capacity (CRC/CRC0 at 12.5 μM)” value in experiment [2] (Table 1, average ± SEM) came to 7.14 ± 0.69.
For the compound `Cc1c(Cl)cccc1NC(=O)c1cc(-c2ccc(F)c(O)c2)on1` [drawing 141], the EC50 in experiment [1] (setting [6]) was greater than 100 µM; in experiment [3] (Table 1, average ± SEM), 0.00089 ± 0.000141 µM. For the same compound, the “Calcium Retention Capacity (CRC/CRC0) at 1.56 μM” value in experiment [2] (Table 1, average ± SEM) was 12.14 ± 0.55 (at 1.56 μM).
With `COc1ccc(/C=C/C(=O)Nc2cccc(Cl)c2)cc1O` [drawing 143], the EC50 is greater than 100 µM in experiment [1] (setting [6]) and 0.125 ± 0.0071 µM in experiment [3] (Table 1, average ± SEM). Also, the “Calcium Retention Capacity (CRC/CRC0 at 12.5 μM)” value in experiment [2] (Table 1, average ± SEM) is recorded as 11.05 ± 1.35.
On the same counts, the results for `COc1ccc(Cl)cc1C(=O)Nc1ccc(CCN2CCNCC2)cc1` [drawing 145] are greater than 100 µM, 5.85 ± 0.344 µM and 1.37 ± 0.02.
In the case of `COc1ccc(Cl)cc1C(=O)Nc1ccc(CCN2CCN(C(=O)OC(C)(C)C)CC2)cc1` [drawing 148], the EC50 in experiment [1] (setting [6]) is greater than 100 µM; in experiment [3] (Table 1, average ± SEM), 7.61 ± 0.839 µM. Also, in experiment [2] (Table 1, average ± SEM), the “Calcium Retention Capacity (CRC/CRC0 at 12.5 μM)” value was found to be 1.37 ± 0.02.
Regarding `COc1ccc(Cl)cc1C(=O)Nc1ccc(CN2CCNCC2)cc1` [drawing 151], the EC50 in experiment [1] (setting [6]) was greater than 100 µM; in experiment [3] (Table 1, average ± SEM) it was 6.87 ± 0.423 µM. For the same compound, the “Calcium Retention Capacity (CRC/CRC0 at 12.5 μM)” value in experiment [2] (Table 1, average ± SEM) is listed as 1.24 ± 0.04.
The matching figures for `COc1ccc(Cl)cc1C(=O)Nc1ccc(CN2CCNCC2)cc1` [drawing 153]: greater than 100 µM, 2.15 ± 0.1 µM and 1.65 ± 0.06.
On the same counts, the results for `COc1ccc(Cl)cc1C(=O)Nc1ccc(CCN2CCNCC2)cc1` [drawing 154] are greater than 100 µM, 7.25 ± 0.526 µM and 1.31 ± 0.03.
As to `O=C(Nc1cccc(Cl)c1)c1cc(-c2cccc(O)c2)on1` [drawing 182], the EC50 was greater than 100 µM in experiment [1] (setting [6]) and 0.0788 ± 0.0058 µM in experiment [3] (Table 1, average ± SEM). The “Calcium Retention Capacity (CRC/CRC0) at 1.56 μM” value in experiment [2] (Table 1, average ± SEM) is listed as 4.13 ± 0.17 (at 1.56 μM).
Consider `O=C(Nc1cc(Cl)cc(Cl)c1)c1cc(-c2ccc(F)c(O)c2)on1` [drawing 191], for which the EC50 in experiment [1] (setting [6]) was greater than 100 µM; in experiment [3] (Table 1, average ± SEM), 0.076 ± 0.0092 µM. Moreover, in experiment [2] (Table 1, average ± SEM), the “Calcium Retention Capacity (CRC/CRC0 at 12.5 μM)” value stood at 11.22 ± 1.22.
The matching figures for `O=C(Nc1cccc(Cl)c1Cl)c1cc(-c2ccc(F)c(O)c2)on1` [drawing 193]: greater than 100 µM, 0.071 ± 0.0011 µM and 11.21 ± 1.38.
Turning to `COc1ccc(-c2cc(C(=O)Nc3cc(Cl)ncc3C)no2)cc1O` [drawing 202], the EC50 was greater than 100 µM in experiment [1] (setting [6]) and 0.366 ± 0.0475 µM in experiment [3] (Table 1, average ± SEM). In experiment [2] (Table 1, average ± SEM), the “Calcium Retention Capacity (CRC/CRC0 at 12.5 μM)” value stood at 4.27 ± 0.40.

The values above are taken from US20240067600A1, “SMALL MOLECULE INHIBITORS OF THE MITOCHONDRIAL PERMEABILITY TRANSITION PORE (mtPTP)” (UNIVERSITY OF KANSAS, priority 2014, published 2024).
